Consider 3 compounds from US20260373274A1, “PEPTIDE-LINKED DRUG DELIVERY SYSTEM” (priority 2022, published 2026).

The test system of one series is Renca/GFP-Luc tumors. Kind of series: Kidney cancer treatment, orthotopic Renca/GFP-Luc syngeneic model. It is filed as in vivo, female BALB/c mice; murine tumor cells. The method, then: Evaluation of DM1-Bdd for Kidney cancer treatment—Renca/GFP-Luc cells ([…]) in PBS (3 μL) were orthotopically implanted into the kidney capsules of 7- to 9-week-old female BALB/c mice (Jackson Laboratory, Bar Harbor, ME) as previously described. The tumor progression was confirmed by bioluminescence imaging. […] The animals were monitored for tumor growth inhibition and survival as described above. Additional mice were used for histopathological analysis (n=4/group).
(§1) Slides were then counterstained with Hematoxylin.

The nature of series [1]: Hematology, complete blood count. It is filed as in vivo, female BALB/c mice. The conditions noted are these: i.v. weekly for 3 weeks; DM1/DM1-Bdd 0.75 mg/kg, CIS 10 mg/kg. The method, then:
Necropsy—Seven- to 9-week-old female BALB/c mice (n=4/group) were treated weekly with PBS, DM1, DM1-peptide (0.75 mg/kg of drug content), or cisplatin (10 mg/kg) via tail-vein injection (150 μL). At the end of a 3-week treatment, mice were euthanized. The organs/tissues were harvested, fixed in 10% neutral buffered formalin for 2 days. Bones were decalcified in a formic acid solution (Surgipath Decalcifier I; Leica Biosystems, Weltzar, Germany). The samples were then embedded in paraffin, sectioned (5 μm), and stained with H&E for examination by an ACVP board certified anatomic pathologist.
(§2) Hematology and biochemistry—Blood samples were collected via cardiac puncture. A complete blood count, including red blood cell, white blood cell, reticulocyte and platelet counts, with an automated differential leukocyte count, was performed using an IDEXX Procyte DX hematology analyzer (iDEXX, Westbrook. ME). Blood smears were prepared, stained with modified Wright's stain, examined in a blinded fashion by a board-certified veterinary clinical pathologist (T.S.), and imaged using a Nikon Eclipse TE2000-U fluorescent microscope equipped with a photometrics CoolSNAP HQ^2 camera (Nikon Corporation, Tokyo, Japan). The blood was also centrifuged (1,500×G) for 15 min to obtain the serum for biochemical analysis using a Beckman Coulter AU680 analyzer (Beckman Coulter, Brea, CA).

The subject of series [2] is kidney injury molecule-1 (KIM-1) and neutrophil gelatinase-associated lipocalin (NGAL). In words: Nephrotoxicity studies, urinary renal injury biomarkers by ELISA. Particulars: single i.v. dose, 0.75 mg/kg of drug content. The series is classed as in vivo, BALB/c mice. As for the experimental part:
(§3) The level of the acute renal injury biomarkers, neutrophil gelatinase-associated lipocalin (NGAL) and kidney injury molecule-1 (KIM-1) in the urine samples, were measured using ELISA assays according to the manufacturer's instructions (R&D Systems, Minneapolis, MN). […] All the animals (n=3/group) were euthanized at the end of the treatment and the kidneys were collected and fixed in 10% neutral buffered formalin. The tissues were then processed, embedded in paraffin, sectioned, and stained with H&E. Immunohistochemistry (IHC) for kidney injury (NGAL and KIM-I) was also performed.
In general terms: In an ELISA, binding on a coated surface is turned into a signal by an enzyme label.

Series [3] relates to major organs (liver, spleen, heart, lungs, and kidneys). In words: Necropsy, histopathology of major organs. It is filed as in vivo, female BALB/c mice. Particulars: i.v. weekly for 3 weeks. The source says: (§4) At the end of a 3-week treatment, mice were euthanized. The organs/tissues were harvested, fixed in 10% neutral buffered formalin for 2 days. Bones were decalcified in a formic acid solution (Surgipath Decalcifier I; Leica Biosystems, Weltzar, Germany). The samples were then embedded in paraffin, sectioned (5 μm), and stained with H&E for examination by an ACVP board certified anatomic pathologist.

A further series can be described thus: Serum biochemistry. It is filed as in vivo, female BALB/c mice. Particulars: i.v. weekly for 3 weeks; DM1/DM1-Bdd 0.75 mg/kg, CIS 10 mg/kg.
Description: as §4, §2

Series [4] is described as follows: In vitro drug release study, DM1-peptide. It is filed as physicochemical. Particulars: GSH (1 mM), PBS. The method, then:
In vitro drug release study—DM1-peptide conjugates (10 μM of drug content) were incubated in the presence of the reducing agent GSH (1 mM) in PBS buffer (800 μL). At different time intervals (0, 2, 4, 6, 8, 12, 24, and 48 h), a small amount of solution (100 μL) was taken out for HPLC analysis using C18 analytical column. The amount of DM1 active metabolites released overtime was measured (absorbance detected at 254 nm) and then quantified. The experiment was performed independently in triplicate. A similar experiment was performed to quantify the release of aldox. Aldox-peptide conjugates (100 μM of drug content) were incubated in PBS buffer (800 μL) with different pH (7.4 and 5.5) in a glass vial coated with silica to avoid non-specific adsorption on the reaction vessel surfaces. The amount of drug released over time was then measured as described above (absorbance detected at 480 nm). For accurate quantification, all the results were normalized compared to a DOX control incubated in similar conditions.

Series [5] deals with orthotopic human UMUC-3 tumors. In words: Therapeutic efficacy for treating BC, orthotopic UMUC-3/GFP-Luc xenograft.
Description: These animals were immediately euthanized I week after the completion of the treatment schedule.
as §1

A further series relates to kidneys. In words: Nephrotoxicity studies, kidney histology and immunohistochemistry (NGAL and KIM-1). The series is classed as in vivo, BALB/c mice. The conditions noted are these: 3 days after i.v. administration; CIS 10 mg/kg, DM1-Bdd 0.75 mg/kg of drug content. As for the experimental part: as §1, §3
A short description of series [6]: μPET/CT imaging and biodistribution of ^89Zr-radiolabeled peptides. It is filed as in vivo, BALB/c mice. Particulars: i.v. As for the experimental part:
Radiochemistry—^89Zirconium (^89Zr) was supplied by 3DImaging LLC (Little Rock, AR). The ^89Zr-oxalate (500 μCi) was first neutralized with an equivalent volume of sodium carbonate solution (2 M), and then added to the DFO-peptides (0.2 mg, 250 μL). After incubation for 1.5 h at room temperature, the radiolabeled peptides (^89Zr-peptides) were purified by size exclusion chromatography using Sephadex G-25 gel to remove the free zirconium.
μPET/CT imaging and biodistribution study—BALB/c mice were intravenously injected with different ^89Zr-peptide analogues (20 μCi, 100 μL). μLPET/CT imaging was performed in animals with and without urine collection prior to the first imaging (n=4/analogue/condition). Whole-body images were acquired 1, 4, and 24 h after injection, using Inveon μPET/CT scanner (Siemens Medical Solutions, Malvern, PA). μPET/CT maximum energy projections were processed using Amide v1.0.4 and Inveon Research Workplace software. The radioactivities at different region of interest (ROI) were determined. […] The radioactivities of the harvested organs were measured using the Wallac Wizard 2 gamma counter. The results were corrected from radioactive decay, and were expressed as a percentage of the injected dose (% ID) or percentage of injected dose per gram of tissue (% ID/g).

Setting [7] is: i.v., 0.75 mg/kg of drug content weekly for 3 weeks.
Where [8] appears, read: one week after completing the treatment course.
Setting [9] is: i.v., 0.75 mg/kg weekly for 3 weeks.

“Also recorded” adds a separate entry of the source. Where a SMILES comes first, the peptide text is derived from it. [ ]: non-standard residue; d: D form. The star is where a group is joined. X1 = COc1cc2cc(c1Cl)N(C)C(=O)C[C@H](OC(=O)[C@H](C)N(C)C(=O)CCS*)[C@]1(C)O[C@H]1[C@H](C)[C@@H]1C[C@@](O)(NC(=O)O1)[C@H](OC)/C=C/C=C(\C)C2; βAla = NCCC(=O)O; Mpa = O=C(O)CCS

For `COc1cc2cc(c1Cl)N(C)C(=O)C[C@H](OC(=O)[C@H](C)N(C)C(=O)CCSSCCC(=O)NCCC(=O)N[C@H](CC(=O)O)C(=O)N[C@H](CC(=O)O)C(=O)NCCC(=O)N[C@H](CC(=O)O)C(=O)N[C@H](CC(=O)O)C(=O)NCCC(=O)N[C@H](CC(=O)O)C(=O)N[C@H](CC(=O)O)C(=O)NCCC(=O)N[C@H](CC(=O)O)C(=O)N[C@H](CC(=O)O)C(N)=O)[C@]1(C)O[C@H]1[C@H](C)[C@@H]1C[C@@](O)(NC(=O)O1)[C@H](OC)/C=C/C=C(\C)C2` [DM1-Bdd] ([Mpa](X1)[βAla][dD][dD][βAla][dD][dD][βAla][dD][dD][βAla][dD][dD]-NH2), in the series with Renca/GFP-Luc tumors (i.v.), the “survival benefit compared to the free drug” value is given as “significant survival benefit compared to the free drug”. Also, in the series with Renca/GFP-Luc tumors (setting [7]), the “bioluminescence signals in the majority of the animals” value is listed as “decreased bioluminescence signals”, the “survival after 160 days” value came out at 50%, the tumor progression result was “inhibit tumor progression” and the tumor size entry is recorded as “reduced tumor size”. Also, in the series on Renca/GFP-Luc tumors (setting [8]), the “animals lacking gross or histologic evidence of the tumor” value is on record as “approximately 50%” and the “tumor in kidneys by histological examination” value is recorded as “Minimal tumor was present”. In series [1], the “red blood cell, leukocyte, or platelet counts or morphologic features” value was “did not affect the red blood cell, leukocyte, or platelet counts or morphologic features”. For the same compound, the “time for KIM-1 and NGAL to return to basal levels” value in series [2] is given as not above 3 days. The “levels of KIM-1 and NGAL in the urine, 1 day” value in [2] (1 day) is given as “slightly increased”. In addition, the overall toxicity entry in series [3] is listed as “did not induce unwanted toxicity; also recorded: safe toxicity profile”. The “histopathology of liver, spleen, heart, lungs, or kidneys” value in series [3] (DM1/DM1-Bdd 0.75 mg/kg, CIS 10 mg/kg) is “no morphological evidence of injury in the liver, spleen, heart, lungs, or kidneys”. In the series “Serum biochemistry”, the “hepatotoxicity: release of ALP, ALT, and AST” value was “not hepatotoxic, with no significant alteration in the release of ALP, ALT, and AST”; the urea nitrogen/creatinine ratio result is recorded as “normal”. Also, the “drug release in a reducing environment” value in series [4] was “enabling drug release in a reducing environment”. Further, the “treatment outcome of i.v. compared to i.t. administration” value in series [5] (0.75 mg/kg of drug content weekly for 3 weeks) is “better treatment outcome; also recorded: more effective”. The “anti-tumor activity of i.v. DM1-Bdd versus i.v. DM1” value in series [5] (bioluminescence imaging during 3 once-per-week treatments) is on record as “similar”. In series [5] (setting [9]), the “survival after 100 days” value amounted to 36% and the “tumor growth inhibition compared to i.t. MIT” value is on record as “more effective in inhibiting tumor growth”. In addition, in series [5] (i.v., 0.75 mg/kg weekly for 3 weeks, 0.75 mg/kg), the “animal survival compared to i.t. MIT” value is “prolonged animal survival; also recorded: improved the overall survival”. In addition, in series [5] (i.v., 210 days), the “animals for which treatment was curative” value is 21%; the “gross and histologic evidence of tumors in survivor mice” value is “lacked gross and histologic evidence (using GFP and Ki67 immunostaining) of tumors”. In series [5] (i.v., 210 days after tumor implantation), the “animals which lacked gross and histologic evidence of tumors” value came out at 3 animals. The “tumor size by histology” value in [5] (i.v., end of treatment) is “smaller”. Further, in series [5] (i.v., immunohistochemistry), the GFP-positive cells result was “fewer GFP-positive cells” and the “proportion of cells expressing Ki67” value is “lower proportion of cells expressing the proliferation marker (Ki67)”. Moreover, in the series on kidneys, the “histologic examination of kidneys” value was “did not reveal any abnormalities in the kidneys”; the “immunoreactivity of kidney sections for KIM-1 and NGAL” value is given as “no elevation of the immunoreactivity”.
Turning to `CC(=O)N(O)CCCCCNC(=O)CCC(=O)N(O)CCCCCNC(=O)CCC(=O)N(O)CCCCCNC(=S)Nc1ccc(NC(=S)NCCC(=O)N[C@@H](CCCCN)C(=O)N[C@@H](CCCCN)C(=O)NCCC(=O)N[C@@H](CCCCN)C(=O)N[C@@H](CCCCN)C(=O)NCCC(=O)N[C@@H](CCCCN)C(=O)N[C@@H](CCCCN)C(=O)NCCC(=O)N[C@@H](CCCCN)C(=O)N[C@@H](CCCCN)C(N)=O)cc1` [^89Zr-BKK, metal not drawn] (HELM PEPTIDE1{[CC(=O)N(O)CCCCCNC(=O)CCC(=O)N(O)CCCCCNC(=O)CCC(=O)N(O)CCCCCNC(=S)Nc1ccc(NC(=S)[*:2])cc1].[bAla].K.K.[bAla].K.K.[bAla].K.K.[bAla].K.K.[am]}$$$$V2.0), the organ distribution result in [6] was “delivered to the liver in addition to the URS”.
In the case of “NH2-(PEG3)DD-(PEG3)DD-(PEG3)DD-(PEG3)DD-CONH2 (SEQ ID NO:5) [PEG3DD]”, the “accumulation in kidneys over time” value in series [6] was “initial increase”.
